Patent publication US12025619B2, “Methods and systems for detecting prostaglandins by LC-MS/MS” (Laboratory Corporation of America Holdings, priority 2020, dated 2024)
Values joined by “and” are separate entries in the source; they are usually repeats but may differ in a detail not shown here. Identical values can stand only once.

Key:
[1] = Autosampler stability, urine assay; type: physicochemical; details: human urine assay, stored refrigerated for up to 3 days and 8 hours
Procedure: Autosampler stability. […] To validate autosampler stability a batch containing two sets of calibrators and QCs was processed as normal. After completion of assay processing the first set of calibrators, QCs, and normal urines was injected and analyzed. After analysis the assay batch was stored refrigerated in the autosampler prior to reinjection of the first set of samples and first time injection of the second set of calibrators and QCs. The 96-well plates containing the processed assay were stored refrigerated in the autosampler for approximately 3 days, 8 hours, and 36 minutes before injection was completed for all samples. Post-storage recoveries were based on target concentrations for the stored, first time injection samples. Reinjected samples were compared to initial injection results to determine recoveries. Autosampler study results met acceptance criteria. […] Assay batches stored refrigerated for up to 3 days and 8 hours were stable and suitable for first time injection or re-injection to determine Prostaglandin D2 concentrations in human urine.

[2] = Autosampler stability, serum assay; type: physicochemical; details: human serum assay, stored refrigerated for up to 3 days and 22 hours
Procedure: Autosampler stability. […] To validate autosampler stability a batch containing two sets of calibrators and QCs was processed as normal. After completion of assay processing the first set of calibrators and QCs was injected and analyzed. After analysis the assay batch was stored refrigerated in the autosampler prior to reinjection of the first set of samples and first time injection of the second set of calibrators and QCs. The 96-well plates containing the processed assay were stored refrigerated in the autosampler for approximately 3 days, 22 hours, and 16 minutes before injection was completed for all samples. Post-storage recoveries were based on target concentrations for the stored, first time injection samples. Reinjected samples were compared to initial injection results to determine recoveries. Autosampler study results met acceptance criteria. Assay batches stored refrigerated for up to 3 days and 22 hours are stable and suitable for first time injection or re-injection to determine Prostaglandin D2 concentrations in human serum.

[3] = Short-term and freeze/thaw stability in human serum; type: physicochemical; details: for Mean concentration at stability time point / Measured Concentration (replicates): Donors 1-3; for Measured Concentration (replicates): human serum
Procedure: Serum samples were collected into red top tubes and frozen immediately. Specimens were stored according to the following conditions: • Short Term Storage • Serum Frozen (≤−10° C. and ≤−55° C.): 7 days • Serum Refrigerated (2-8° C.): Strictly frozen storage.
Short-term and freeze/thaw stability. Sample stability was confirmed by testing human serum from three individual donors that was stored at each of the different conditions likely to be encountered in sample handling and laboratory analysis. […] An additional set of the freshly collected serum underwent up to 6 freeze/thaw cycles prior to stability testing. All serum stability samples and baseline stored samples were tested with freshly prepared calibrators. All testing was performed in triplicate.

[4] = Calibrator freeze/thaw stability; type: physicochemical; details: for replicates within 85-115% of the target: calibrator matrix
Procedure: Calibrator freeze/thaw stability. Calibrator freeze/thaw stability was examined by analyzing using an accuracy sample made in calibrator amatrix (A4 at 250 pg/mL). The accuracy sample underwent up to 6 freeze/thaw cycles prior to stability testing. Freeze/thaw cycles were performed as per Example 3. Times and temperatures were recorded on the incubation study stability forms. All testing was performed in triplicate. The target concentration for the accuracy sample was used to define acceptable ranges for measured concentrations after freeze/thaw cycles. For the first five freeze/thaw cycles, 100% of replicates were within 85-115% of the target (TABLE 15). For the sixth freeze/thaw cycle >60% of replicates were within 85-115% of the target (TABLE 15). […] Prostaglandin D2 is stable in calibrator matrix after 5 freeze/thaw cycles (6 total thaws).

human ovarian tumor cell = details: read-out: IC50, inhibition of human ovarian tumor cell proliferation; cited from earlier work
[5] = Short-term and freeze/thaw stability of PGD2 in urine; type: physicochemical, human
Procedure: Urine samples were collected into plastic containers. Specimens were stored according to the following conditions: • Short Term Storage • Urine Frozen (≤−10° C. and ≤−55° C.): 8 days • Urine Refrigerated (2-8° C.): 3 days • Urine Room Temperature (15-30° C.): 3 days • Urine Freeze/Thaw (≤−10° C.): 6 Cycles • Long Term Storage • Urine Frozen (≤−10° C.): Stability testing in process • Shipping Conditions: • Urine Frozen (≤−10° C.):—on dry ice PGD2 was stable for at least 3 days at 4° C. and at room temperature and 8 days frozen (≤−10° C. or ≤−55° C.). PGD2 was stable for at least 6 freeze-thaw cycles (≤−10° C. or ≤−55° C.). [table]

[6] = Freeze/Thaw (<−10° C.), 1 Cycle (2 Thaws)
[7] = Freeze/Thaw (<−10° C.), 2 Cycles (3 Thaws)
[8] = Refrigerated (2-8° C.), 3.5 Hours

Autosampler stability of processed assay batches [1]: stable
Autosampler stability of processed assay batches [2]: stable
% of replicates within 85-115% of mean at baseline [3, 6]: 100.00%
% of replicates within 85-115% of mean at baseline [3, 7]: 77.78%
% of replicates within 85-115% of mean at baseline ([3]; Freeze/Thaw (<−10° C.), 3 Cycles (4 Thaws)): 0.00%
% of replicates within 85-115% of mean at baseline ([3]; Freeze/Thaw (<−10° C.), 6 Cycles (7 Thaws)): 0.00%
% of replicates within 85-115% of mean at baseline ([3]; Frozen (<−55° C.), 7 Days): 100.00%
% of replicates within 85-115% of mean at baseline ([3]; Frozen (≤−10° C.), 7 Days): 100.00%
% of replicates within 85-115% of mean at baseline ([3]; Refrigerated (2-8° C.), 1 Day): 0.00%
% of replicates within 85-115% of mean at baseline ([3]; Refrigerated (2-8° C.), 3 Days): 0.00%
Mean concentration at stability time point ([3]; Refrigerated (2-8° C.), 3 Days): 3.83 pg/mL and 4.93 pg/mL and 3.33 pg/mL
% of replicates within 85-115% of mean at baseline [3, 8]: 88.89%
% of replicates within 85-115% of mean at baseline ([3]; Refrigerated (2-8° C.), 7 Hours): 0.00%
% of replicates within 85-115% of mean at baseline ([3]; Room Temp (15-30° C.), 1 Day): 0.00%
Mean concentration at stability time point ([3]; Room Temp (15-30° C.), 1 Day): 6.95 pg/mL and 4.42 pg/mL and 4.22 pg/mL
% of replicates within 85-115% of mean at baseline ([3]; Room Temp (15-30° C.), 3 Days): 0.00%
Mean concentration at stability time point ([3]; Room Temp (15-30° C.), 3 Days): 9.17 pg/mL and 6.27 pg/mL and 5.78 pg/mL
% of replicates within 85-115% of mean at baseline ([3]; Room Temp (15-30° C.), 3.5 Hours): 0.00%
% of replicates within 85-115% of mean at baseline ([3]; Room Temp (15-30° C.), 7 Hours): 0.00%
Short-term and freeze/thaw stability study result ([3]; frozen and refrigerated serum): did meet acceptance criteria
Short-term stability study result ([3]; serum stored at room temperature): did not meet acceptance criteria
stable in calibrator matrix after (freeze/thaw cycles) ([4]; accuracy sample A4 at 250 pg/mL): 5 freeze/thaw cycles
replicates within 85-115% of the target ([4]; first five freeze/thaw cycles): 100%
replicates within 85-115% of the target ([4]; sixth freeze/thaw cycle): > 60%
stable for at least (time) ([5]; 4° C.): at least 3 days
stable for at least (time) ([5]; frozen (≤−10° C. or ≤−55° C.)): ≥ 8 days
stable for at least (time) ([5]; room temperature): at least 3 days
stable for at least (freeze-thaw cycles) ([5]; ≤−10° C. or ≤−55° C.): at least 6 freeze-thaw cycles
Structure (SMILES): CCCCC[C@H](O)/C=C/[C@H]1C(=O)C[C@H](O)[C@@H]1C/C=C\CCCC(=O)O [PGD2, prostaglandin D2]
Measured Concentration (replicates) [3, 6]: 23.2 pg/mL and 95.8 pg/mL and 52.9 pg/mL and 21.1 pg/mL and 107 pg/mL (2×) and 52.4 pg/mL and 23.4 pg/mL and 60.5 pg/mL
Measured Concentration (replicates) [3, 7]: 22.1 pg/mL and 93.3 pg/mL and 19.4 pg/mL and 51.4 pg/mL and 19.7 pg/mL and 92.0 pg/mL and 51.2 pg/mL
Measured Concentration (replicates) ([3]; Frozen (<−55° C.), 7 Days): 24.5 pg/mL (3×) and 119 pg/mL and 65.7 pg/mL and 121 pg/mL and 66.8 pg/mL and 122 pg/mL and 67.9 pg/mL
Measured Concentration (replicates) ([3]; Frozen (≤−10° C.), 7 Days): 23.3 pg/mL (2×) and 101 pg/mL and 53.8 pg/mL and 113 pg/mL (2×) and 57.9 pg/mL and 24.2 pg/mL and 62.3 pg/mL
Measured Concentration (replicates) [3, 8]: 103 pg/mL and 57.9 pg/mL and 20.9 pg/mL and 107 pg/mL and 57.6 pg/mL and 19.9 pg/mL and 93.5 pg/mL and 54.7 pg/mL
Measured Concentration (replicates) ([3]; day of collection, time 0): 21.9 pg/mL and 104 pg/mL and 60.4 pg/mL and 22.0 pg/mL and 107 pg/mL and 59.1 pg/mL and 24.7 pg/mL and 111 pg/mL and 55.6 pg/mL
IC50 (human ovarian tumor cell): 6.8 µM
